Laboratory results published in patent US12600728B2, “Interleukin-17 inhibitors” (priority 2020, dated 2026).
pIC50: −log10 of the molar value. Read-outs that look alike come from different tables or passages of the source.

Key:
[1] = target: recombinant human IL-17AA (Homo sapiens, UniProt Q16552); test: IL-6 release from NHDF cells, IL-17AA plus TNF-α stimulation; type: cell-based; conditions: 24 hours, IL-6 by ELISA
Method in brief: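 ELISA measured IL-6 in supernatants after 24 h at 37° C of NHDF cells with a compound/cytokine cocktail, pre-mixed 30 min at room temperature. Duplicates; 0.1% DMSO or 20% plasma final. IC50 from IL-6 remaining after subtracting the TNF-α-alone signal.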

[2] = target: biotinylated human IL-17A / AF647-labeled human IL-17RA (Homo sapiens, UniProt Q16552); test: Human IL-17A×IL-17RA TR-FRET assay; type: binding
Method in brief: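 Compounds tested in duplicate at each concentration; neutral controls contain all components with DMSO in place of compound.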

[3] = NHDF cells, IL-17AA 30 pM plus TNF-α 6 pM, read-out: IL17AA + TNF IC50 IL-6
[4] = TR-FRET, biotinylated human IL-17A 5 nM, AF647-labeled human IL-17RA 30 nM, read-out: IL17AA FRET/ IL17Rawt IC50
[5] = NHDF cells, IL-17AA 30 pM + TNF-α 6 pM, read-out: IL17AA + TNF IC50 IL-6
[6] = TR-FRET, 5 nM IL-17A, 30 nM IL-17RA, read-out: IL17AA FRET/ IL17Rawt IC50
[7] = IL17AA + TNF IC50 IL-6, NHDF cells, IL-17AA 30 pM + TNF-α 6 pM
[8] = IL17AA FRET/ IL17Rawt IC50, TR-FRET, 5 nM IL-17A, 30 nM IL-17RA

biotinylated human IL-17A / AF647-labeled human IL-17RA, sequence (Q16552 24-155): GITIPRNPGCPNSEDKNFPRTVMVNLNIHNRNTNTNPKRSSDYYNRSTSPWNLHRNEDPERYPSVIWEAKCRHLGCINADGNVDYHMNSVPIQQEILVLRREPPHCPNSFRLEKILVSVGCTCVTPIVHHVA
recombinant human IL-17AA, sequence (Q16552 24-155): as above

Structure (SMILES)	pIC50 [1, 3]	pIC50 [2, 4]	also measured
CCc1nocc1C(=O)N[C@H](C(=O)Nc1ccc(-c2c(C)cc[n+]([O-])c2C)cc1)[C@H]1CCCC(F)(F)C1 [Example 30, 3-(4-((S)-2-((S)-3,3-difluorocyclohexyl)-2-(3-ethylisoxazole-4-carboxamido)acetamido)phenyl)-2,4-dimethylpyridine 1-oxide]	7.92	7.34	
Cc1cc[n+]([O-])c(C)c1-c1ccc(NC(=O)[C@@H](NC(=O)c2ccnn2C)[C@H]2CC=C(F)CC2)cc1 (single isomer, unassigned) [Example 12b, 3-(4-((S)-2-((R)-4-fluorocyclohex-3-en-1-yl)-2-(1-methyl-1H-pyrazole-5-carboxamido)acetamido)phenyl)-2,4-dimethylpyridine 1-oxide or 3-(4-((S)-2-((S)-4-fluorocyclohex-3-en-1-yl)-2-(1-methyl-1H-pyrazole-5-carboxamido)acetamido)phenyl)-2,4-dimethylpyridine 1-oxide]	8.10	6.82	
CCc1nocc1C(=O)NC(C(=O)Nc1ccc(-c2c(Cl)cc[n+]([O-])c2C)cc1)C1CCC(F)(F)CC1 (stereo not drawn) [Example 51, 4-chloro-3-(4-(2-(4,4-difluorocyclohexyl)-2-(3-ethylisoxazole-4-carboxamido)acetamido)phenyl)-2-methylpyridine 1-oxide]	7.21	7.18	
Cc1cc[n+]([O-])c(C)c1-c1ccc(NC(=O)[C@@H](NC(=O)c2ccn3c2CN(C)CC3)C2CCCCCC2)cc1 [Example 119, (S)-3-(4-(2-cycloheptyl-2-(2-methyl-1,2,3,4-tetrahydropyrrolo[1,2-a]pyrazine-8-carboxamido)acetamido)phenyl)-2,4-dimethylpyridine 1-oxide]	7.82	6.89	
Cc1c(-c2ccc(NC(=O)[C@@H](NC(=O)c3ccc4n3CCN(C)C4)C3CCC(F)(F)CC3)cc2F)c(Cl)cc[n+]1[O-] [Example 164, 4-chloro-3-(4-((S)-2-(4,4-difluorocyclohexyl)-2-(2-methyl-1,2,3,4-tetrahydropyrrolo[1,2-a]pyrazine-6-carboxamido)acetamido)-2-fluorophenyl)-2-methylpyridine 1-oxide]			pIC50 [1, 5]: 7.35; pIC50 [2, 6]: 6.70
Cc1c(-c2ccc(NC(=O)C(NC(=O)c3ccnn3C)[C@H]3C[C@@H]4C[C@@H]4C3)cc2F)c(Cl)cc[n+]1[O-] (stereo partly drawn) [Example 225, 3-(4-(2-((1R,3s,5S)-bicyclo[3.1.0]hexan-3-yl)-2-(1-methyl-1H-pyrazole-5-carboxamido)acetamido)-2-fluorophenyl)-4-chloro-2-methylpyridine 1-oxide]			pIC50 [1, 7]: 7.92; pIC50 [2, 8]: 7.54
CCn1nccc1C(=O)N[C@H](C(=O)Nc1ccc(-c2c(Cl)cc[n+]([O-])c2C)cc1)C1CCC(F)(F)CC1 (single isomer, unassigned) [Example 13a]	7.96	7.80	
Cc1c[n+]([O-])cc(C)c1-c1ccc(NC(=O)[C@@H](NC(=O)c2ccc3n2CCN(C)C3)C2CCCCCC2)cc1 [Example 117, (S)-4-(4-(2-cycloheptyl-2-(2-methyl-1,2,3,4-tetrahydropyrrolo[1,2-a]pyrazine-6-carboxamido)acetamido)phenyl)-3,5-dimethylpyridine 1-oxide]	6.92	6.79	
Cc1c(-c2ccc(NC(=O)[C@@H](NC(=O)c3ccc4n3CCN(C)C4)C3CCCCCC3)cc2F)c(Cl)cc[n+]1[O-] [Example 122, 4-chloro-3-(4-((S)-2-cycloheptyl-2-(2-methyl-1,2,3,4-tetrahydropyrrolo[1,2-a]pyrazine-6-carboxamido)acetamido)-2-fluorophenyl)-2-methylpyridine 1-oxide]	8.05	6.89	
Cc1cc[n+]([O-])c(C)c1-c1ccc(NC(=O)[C@@H](NC(=O)c2ccc3n2CCN(C)C3)C2CCCCCC2)cc1 [Example 120, (S)-3-(4-(2-cycloheptyl-2-(2-methyl-1,2,3,4-tetrahydropyrrolo[1,2-a]pyrazine-6-carboxamido)acetamido)phenyl)-2,4-dimethylpyridine 1-oxide]	8.40	7.03	
Cc1cc[n+]([O-])c(C)c1-c1ccc(NC(=O)[C@H](Cc2ccccc2Cl)NC(=O)c2ccc3n2CCNC3)cc1 [Example 190, (S)-3-(4-(3-(2-chlorophenyl)-2-(1,2,3,4-tetrahydropyrrolo[1,2-a]pyrazine-6-carboxamido)propanamido)phenyl)-2,4-dimethylpyridine 1-oxide]			pIC50 [1, 5]: 6.56; pIC50 [2, 6]: 6.91
Cc1nocc1C(=O)NC(C(=O)Nc1ccc(-c2c(Cl)cc[n+]([O-])c2C)c(F)c1)[C@H]1C[C@@H]2C[C@@H]2C1 (stereo partly drawn) [Example 57, 3-(4-(2-((1R,3s,5S)-bicyclo[3.1.0]hexan-3-yl)-2-(3-methylisoxazole-4-carboxamido)acetamido)-2-fluorophenyl)-4-chloro-2-methylpyridine 1-oxide]	7.92	7.43	
Cc1cc[n+]([O-])c(C)c1-c1ccc(NC(=O)[C@@H](NC(=O)c2ccnn2C)[C@H]2CCC[C@@H](F)CC2)cc1 [Example 215, 3-(4-((S)-2-((1S,4R)-4-fluorocycloheptyl)-2-(1-methyl-1H-pyrazole-5-carboxamido)acetamido)phenyl)-2,4-dimethylpyridine 1-oxide]			pIC50 [1, 5]: 6.86; pIC50 [2, 6]: 6.12
Cc1cc(-c2ccc(NC(=O)[C@@H](NC(=O)c3ccnn3C)C3CCCCC3)cc2)c(C)[n+]([O-])c1 [Example 113, (S)-3-(4-(2-cyclohexyl-2-(1-methyl-1H-pyrazole-5-carboxamido)acetamido)phenyl)-2,5-dimethylpyridine 1-oxide]	7.42	6.47	
Cc1c(-c2ccc(NC(=O)[C@@H](NC(=O)c3ccnn3C)C3CCCCC3)cc2F)cc(Cl)c[n+]1[O-] [Example 92, (S)-5-chloro-3-(4-(2-cyclohexyl-2-(1-methyl-1H-pyrazole-5-carboxamido)acetamido)-2-fluorophenyl)-2-methylpyridine 1-oxide]	7.55	6.43	
Cc1cc[n+]([O-])c(C)c1-c1ccc(NC(=O)[C@@H](NC(=O)c2ccc3n2CCNC3)C2CCC(F)(F)CC2)cc1 [Example 207, (S)-3-(4-(2-(4,4-difluorocyclohexyl)-2-(1,2,3,4-tetrahydropyrrolo[1,2-a]pyrazine-6-carboxamido)acetamido)phenyl)-2,4-dimethylpyridine 1-oxide]			pIC50 [1, 5]: 7.16; pIC50 [2, 6]: 6.52
Cc1nocc1C(=O)N[C@H](C(=O)Nc1ccc(-c2c(Cl)cc[n+]([O-])c2C)cc1)C1CCC(F)(F)CC1 [Example 49, (S)-4-chloro-3-(4-(2-(4,4-difluorocyclohexyl)-2-(3-methylisoxazole-4-carboxamido)acetamido)phenyl)-2-methylpyridine 1-oxide]	7.51	7.24	
CC(=O)N1CCn2c(ccc2C(=O)N[C@H](C(=O)Nc2ccc(-c3c(C)cc[n+]([O-])c3C)cc2)C2CCCCCC2)C1 [Example 188, (S)-3-(4-(2-(2-acetyl-1,2,3,4-tetrahydropyrrolo[1,2-a]pyrazine-6-carboxamido)-2-cycloheptylacetamido)phenyl)-2,4-dimethylpyridine 1-oxide]			pIC50 [1, 5]: 8.22; pIC50 [2, 6]: 6.98
Cc1c(-c2ccc(NC(=O)C(NC(=O)c3ccnn3C)C3CCCC(F)(F)C3)cc2)c(Cl)cc[n+]1[O-] (stereo not drawn) [Example 160, 4-chloro-3-(4-(2-(3,3-difluorocyclohexyl)-2-(1-methyl-1H-pyrazole-5-carboxamido)acetamido)phenyl)-2-methylpyridine 1-oxide]			pIC50 [1, 7]: 7.28; pIC50 [2, 8]: 7.05
Cc1cc[n+]([O-])c(C)c1-c1ccc(NC(=O)C(NC(=O)c2ccc3n2CCNC3)C2CCC(C(F)(F)F)CC2)cc1 [Example 178, 2,4-dimethyl-3-(4-((S)-2-(1,2,3,4-tetrahydropyrrolo[1,2-a]pyrazine-6-carboxamido)-2-((1r,4S)-4-(trifluoromethyl)cyclohexyl)acetamido)phenyl)pyridine 1-oxide]			pIC50 [1, 5]: 7.52; pIC50 [2, 6]: 8.05
Cn1nccc1C(=O)N[C@H](C(=O)Nc1ccc(-c2c[n+]([O-])ccc2Cl)cc1)C1CCCCC1 [Example 112, (S)-4-chloro-3-(4-(2-cyclohexyl-2-(1-methyl-1H-pyrazole-5-carboxamido)acetamido)phenyl)pyridine 1-oxide]	6.79	5.98	
Cc1cc[n+]([O-])c(C)c1-c1ccc(NC(=O)C(NC(=O)c2ccc3n2CCN(C)C3)C2CC3CC3C2)cc1 (single isomer, unassigned) [Example 192]			pIC50 [1, 5]: 6.85; pIC50 [2, 6]: 6.82
Cc1cc[n+]([O-])c(C)c1-c1ccc(NC(=O)[C@@H](NC(=O)c2ccnn2C)C2CCC(F)(F)C2)cc1 (stereo partly drawn) [Example 87, 3-(4-((2S)-2-(3,3-difluorocyclopentyl)-2-(1-methyl-1H-pyrazole-5-carboxamido)acetamido)phenyl)-2,4-dimethylpyridine 1-oxide]	6.30	6.31	
Cc1c(-c2ccc(NC(=O)[C@@H](NC(=O)c3ccnn3CCN(C)C)C3CCCCC3)cc2F)c(Cl)cc[n+]1[O-] [Example 77, 4-chloro-3-(4-((S)-2-cyclohexyl-2-(1-(2-(dimethylamino)ethyl)-1H-pyrazole-5-carboxamido)acetamido)-2-fluorophenyl)-2-methylpyridine 1-oxide]	6.82	6.36	
